# Measured values published in ChEMBL document CHEMBL2034882, “Synthesis, biological evaluation and molecular docking studies of novel 2-(1,3,4-oxadiazol-2-ylthio)-1-phenylethanone derivatives” (Bioorg Med Chem, 2012).
# Tested on: MCF7
# Assay: Cytotoxicity against human MCF7 cells after 24 hrs using Annexin VeFITC/propidium iodide staining by MTT assay
# Format: functional, cell-based
# Settings: MCF7, 24 h
row,SMILES,IC50
1,O=C(CSc1nnc(-c2ccccc2F)o1)c1ccc(Br)cc1,240 nM
2,O=C(CSc1nnc(-c2ccccc2F)o1)c1ccccc1,260 nM
3,Nc1cc(-c2nnc(SCC(=O)c3ccccc3)o2)ccn1,140 nM
4,COc1cc(OC)cc(-c2nnc(SCC(=O)c3ccc(Br)cc3)o2)c1,270 nM
5,COc1ccccc1-c1nnc(SCC(=O)c2ccc(Br)cc2)o1,600 nM
6,O=C(CSc1nnc(-c2cccc3ccccc23)o1)c1ccccc1,230 nM
7,O=C(CSc1nnc(-c2ccncc2)o1)c1ccc(Br)cc1,4230 nM
8,CC(C)(C)c1ccc(-c2nnc(SCC(=O)c3ccccc3)o2)cc1,50 nM
9,CCOc1ccccc1-c1nnc(SCC(=O)c2ccccc2)o1,2670 nM
10,CC(C)(C)c1ccc(-c2nnc(SCC(=O)c3ccc(Br)cc3)o2)cc1,1950 nM
11,CCOc1ccccc1-c1nnc(SCC(=O)c2ccc(Br)cc2)o1,460 nM
12,COc1ccc(-c2nnc(SCC(=O)c3ccccc3)o2)c(O)c1,280 nM
13,CN(C)c1ccc(-c2nnc(SCC(=O)c3ccc(Br)cc3)o2)cc1,550 nM
14,O=C(CSc1nnc(-c2ccnc(Cl)c2)o1)c1ccccc1,1290 nM
15,O=C(CSc1nnc(-c2cccc3ccccc23)o1)c1ccc(Br)cc1,260 nM
16,O=C(CSc1nnc(-c2ccnc(Cl)c2)o1)c1ccc(Br)cc1,270 nM
17,CN(C)c1ccc(-c2nnc(SCC(=O)c3ccccc3)o2)cc1,210 nM
18,Nc1cc(-c2nnc(SCC(=O)c3ccc(Br)cc3)o2)ccn1,200 nM
19,COc1ccc(-c2nnc(SCC(=O)c3ccc(Br)cc3)o2)c(O)c1,260 nM
20,COc1ccccc1-c1nnc(SCC(=O)c2ccccc2)o1,2070 nM
21,Cc1ccc(-c2nnc(SCC(=O)c3ccccc3)o2)c(O)c1,150 nM
22,O=C(CSc1nnc(-c2ccncc2)o1)c1ccccc1,370 nM
23,COc1cc(OC)cc(-c2nnc(SCC(=O)c3ccccc3)o2)c1,170 nM
24,Cc1ccc(-c2nnc(SCC(=O)c3ccc(Br)cc3)o2)c(O)c1,2070 nM

# Tested on: A-431
# Assay: Induction of apoptosis in human A431 cells assessed as viable cells at 10 nM after 24 hrs using Annexin VeFITC/propidium iodide staining by flow cytometry
# Format: functional
# Settings: A-431, 24 h, read-out: Activity
row,SMILES,viability at 0.01 µM
1,Nc1cc(-c2nnc(SCC(=O)c3ccccc3)o2)ccn1,61.3%

# Tested on: A-431
# Assay: Induction of apoptosis in human A431 cells assessed as early apoptotic cells at 40 nM after 24 hrs using Annexin VeFITC/propidium iodide staining by flow cytometry
# Format: functional
# Settings: not given
row,SMILES,Activity
1,Nc1cc(-c2nnc(SCC(=O)c3ccccc3)o2)ccn1,43.51%

# Tested on: A-431
# Assay: Cytotoxicity against human A431 cells after 24 hrs […] by MTT assay
# Format: functional, cell-based
# Settings: A-431, 24 h
row,SMILES,IC50
1,O=C(CSc1nnc(-c2ccccc2F)o1)c1ccc(Br)cc1,200 nM
2,O=C(CSc1nnc(-c2ccccc2F)o1)c1ccccc1,50 nM
3,Nc1cc(-c2nnc(SCC(=O)c3ccccc3)o2)ccn1,10 nM
4,COc1cc(OC)cc(-c2nnc(SCC(=O)c3ccc(Br)cc3)o2)c1,60 nM
5,COc1ccccc1-c1nnc(SCC(=O)c2ccc(Br)cc2)o1,80 nM
6,O=C(CSc1nnc(-c2cccc3ccccc23)o1)c1ccccc1,130 nM
7,O=C(CSc1nnc(-c2ccncc2)o1)c1ccc(Br)cc1,780 nM
8,CC(C)(C)c1ccc(-c2nnc(SCC(=O)c3ccccc3)o2)cc1,170 nM
9,CCOc1ccccc1-c1nnc(SCC(=O)c2ccccc2)o1,650 nM
10,CC(C)(C)c1ccc(-c2nnc(SCC(=O)c3ccc(Br)cc3)o2)cc1,100 nM
11,CCOc1ccccc1-c1nnc(SCC(=O)c2ccc(Br)cc2)o1,360 nM
12,COc1ccc(-c2nnc(SCC(=O)c3ccccc3)o2)c(O)c1,180 nM
13,CN(C)c1ccc(-c2nnc(SCC(=O)c3ccc(Br)cc3)o2)cc1,200 nM
14,O=C(CSc1nnc(-c2ccnc(Cl)c2)o1)c1ccccc1,3200 nM
15,O=C(CSc1nnc(-c2cccc3ccccc23)o1)c1ccc(Br)cc1,160 nM
16,O=C(CSc1nnc(-c2ccnc(Cl)c2)o1)c1ccc(Br)cc1,50 nM
17,CN(C)c1ccc(-c2nnc(SCC(=O)c3ccccc3)o2)cc1,160 nM
18,Nc1cc(-c2nnc(SCC(=O)c3ccc(Br)cc3)o2)ccn1,60 nM
19,COc1ccc(-c2nnc(SCC(=O)c3ccc(Br)cc3)o2)c(O)c1,330 nM
20,COc1ccccc1-c1nnc(SCC(=O)c2ccccc2)o1,20 nM
21,Cc1ccc(-c2nnc(SCC(=O)c3ccccc3)o2)c(O)c1,60 nM
22,O=C(CSc1nnc(-c2ccncc2)o1)c1ccccc1,1000 nM
23,COc1cc(OC)cc(-c2nnc(SCC(=O)c3ccccc3)o2)c1,40 nM
24,CN[C@@H]1C[C@H]2O[C@@](C)([C@@H]1OC)n1c3ccccc3c3c4c(c5c6ccccc6n2c5c31)C(=O)NC4 [STAUROSPORINE],70 nM
25,Cc1ccc(-c2nnc(SCC(=O)c3ccc(Br)cc3)o2)c(O)c1,50 nM

# Tested on: A-431
# Assay: Induction of apoptosis in human A431 cells assessed as necrotic cells at 40 nM after 24 hrs using Annexin VeFITC/propidium iodide staining by flow cytometry
# Format: functional
# Settings: not given
row,SMILES,Activity
1,Nc1cc(-c2nnc(SCC(=O)c3ccccc3)o2)ccn1,6%

# Tested on: A-431
# Assay: Induction of apoptosis in human A431 cells assessed as viable cells at 20 nM after 24 hrs using Annexin VeFITC/propidium iodide staining by flow cytometry
# Format: functional
# Settings: A-431, 24 h, read-out: Activity
row,SMILES,viability at 0.02 µM
1,Nc1cc(-c2nnc(SCC(=O)c3ccccc3)o2)ccn1,49.8%

# Tested on: A-431
# Assay: Induction of apoptosis in human A431 cells assessed as necrotic cells at 20 nM after 24 hrs using Annexin VeFITC/propidium iodide staining by flow cytometry
# Format: functional
# Settings: not given
row,SMILES,Activity
1,Nc1cc(-c2nnc(SCC(=O)c3ccccc3)o2)ccn1,6%

# Tested on: A-431
# Assay: Induction of apoptosis in human A431 cells assessed as late apoptotic cells at 10 nM after 24 hrs using Annexin VeFITC/propidium iodide staining by flow cytometry
# Format: functional
# Settings: not given
row,SMILES,Activity
1,Nc1cc(-c2nnc(SCC(=O)c3ccccc3)o2)ccn1,12.23%

# Tested on: A-431
# Assay: Induction of apoptosis in human A431 cells assessed as late apoptotic cells at 40 nM after 24 hrs using Annexin VeFITC/propidium iodide staining by flow cytometry
# Format: functional
# Settings: not given
row,SMILES,Activity
1,Nc1cc(-c2nnc(SCC(=O)c3ccccc3)o2)ccn1,16.65%

# Tested on: A-431
# Assay: Induction of apoptosis in human A431 cells after 24 hrs using Annexin VeFITC/propidium iodide staining by flow cytometry
# Format: functional, cell-based
# Settings: not given
row,SMILES,Activity
1,Nc1cc(-c2nnc(SCC(=O)c3ccccc3)o2)ccn1,Dose-dependent effect

# Tested on: A-431
# Assay: Induction of apoptosis in human A431 cells assessed as early apoptotic cells at 20 nM after 24 hrs using Annexin VeFITC/propidium iodide staining by flow cytometry
# Format: functional
# Settings: not given
row,SMILES,Activity
1,Nc1cc(-c2nnc(SCC(=O)c3ccccc3)o2)ccn1,28.92%

# Tested on: A-431
# Assay: Induction of apoptosis in human A431 cells assessed as necrotic cells at 10 nM after 24 hrs using Annexin VeFITC/propidium iodide staining by flow cytometry
# Format: functional
# Settings: not given
row,SMILES,Activity
1,Nc1cc(-c2nnc(SCC(=O)c3ccccc3)o2)ccn1,9%

# Tested on: A-431
# Assay: Induction of apoptosis in human A431 cells assessed as necrotic cells at 5 nM after 24 hrs using Annexin VeFITC/propidium iodide staining by flow cytometry
# Format: functional
# Settings: not given
row,SMILES,Activity
1,Nc1cc(-c2nnc(SCC(=O)c3ccccc3)o2)ccn1,8%

# Tested on: A-431
# Assay: Induction of apoptosis in human A431 cells assessed as late apoptotic cells at 20 nM after 24 hrs using Annexin VeFITC/propidium iodide staining by flow cytometry
# Format: functional
# Settings: not given
row,SMILES,Activity
1,Nc1cc(-c2nnc(SCC(=O)c3ccccc3)o2)ccn1,15.26%

# Tested on: A-431
# Assay: Induction of apoptosis in human A431 cells assessed as viable cells at 40 nM after 24 hrs using Annexin VeFITC/propidium iodide staining by flow cytometry
# Format: functional
# Settings: A-431, 24 h, read-out: Activity
row,SMILES,viability at 0.04 µM
1,Nc1cc(-c2nnc(SCC(=O)c3ccccc3)o2)ccn1,33.8%

# Tested on: not listed separately
# Assay: Inhibition of bovine brain FAK after 20 mins by turbidimetry
# Set-up: species or system Bos taurus
# Settings: not given
row,SMILES,IC50
1,O=C(CSc1nnc(-c2ccccc2F)o1)c1ccc(Br)cc1,19800 nM
2,O=C(CSc1nnc(-c2ccccc2F)o1)c1ccccc1,1220 nM
3,Nc1cc(-c2nnc(SCC(=O)c3ccccc3)o2)ccn1,20 nM
4,COc1cc(OC)cc(-c2nnc(SCC(=O)c3ccc(Br)cc3)o2)c1,1080 nM
5,COc1ccccc1-c1nnc(SCC(=O)c2ccc(Br)cc2)o1,1350 nM
6,O=C(CSc1nnc(-c2cccc3ccccc23)o1)c1ccccc1,5800 nM
7,O=C(CSc1nnc(-c2ccncc2)o1)c1ccc(Br)cc1,76300 nM
8,CC(C)(C)c1ccc(-c2nnc(SCC(=O)c3ccccc3)o2)cc1,18600 nM
9,CCOc1ccccc1-c1nnc(SCC(=O)c2ccccc2)o1,59800 nM
10,CC(C)(C)c1ccc(-c2nnc(SCC(=O)c3ccc(Br)cc3)o2)cc1,9800 nM
11,CCOc1ccccc1-c1nnc(SCC(=O)c2ccc(Br)cc2)o1,40500 nM
12,COc1ccc(-c2nnc(SCC(=O)c3ccccc3)o2)c(O)c1,20500 nM
13,CN(C)c1ccc(-c2nnc(SCC(=O)c3ccc(Br)cc3)o2)cc1,21500 nM
14,O=C(CSc1nnc(-c2ccnc(Cl)c2)o1)c1ccccc1,302000 nM
15,O=C(CSc1nnc(-c2cccc3ccccc23)o1)c1ccc(Br)cc1,17900 nM
16,O=C(CSc1nnc(-c2ccnc(Cl)c2)o1)c1ccc(Br)cc1,970 nM
17,CN(C)c1ccc(-c2nnc(SCC(=O)c3ccccc3)o2)cc1,17500 nM
18,Nc1cc(-c2nnc(SCC(=O)c3ccc(Br)cc3)o2)ccn1,1150 nM
19,COc1ccc(-c2nnc(SCC(=O)c3ccc(Br)cc3)o2)c(O)c1,35400 nM
20,COc1ccccc1-c1nnc(SCC(=O)c2ccccc2)o1,580 nM
21,Cc1ccc(-c2nnc(SCC(=O)c3ccccc3)o2)c(O)c1,760 nM
22,O=C(CSc1nnc(-c2ccncc2)o1)c1ccccc1,98700 nM
23,COc1cc(OC)cc(-c2nnc(SCC(=O)c3ccccc3)o2)c1,650 nM
24,Cc1ccc(-c2nnc(SCC(=O)c3ccc(Br)cc3)o2)c(O)c1,2670 nM

# Tested on: A-431
# Assay: Induction of apoptosis in human A431 cells assessed as late apoptotic cells at 5 nM after 24 hrs using Annexin VeFITC/propidium iodide staining by flow cytometry
# Format: functional
# Settings: not given
row,SMILES,Activity
1,Nc1cc(-c2nnc(SCC(=O)c3ccccc3)o2)ccn1,9.47%

# Tested on: A-431
# Assay: Induction of apoptosis in human A431 cells assessed as viable cells at 5 nM after 24 hrs using Annexin VeFITC/propidium iodide staining by flow cytometry
# Format: functional
# Settings: A-431, 24 h, read-out: Activity
row,SMILES,viability at 0.005 µM
1,Nc1cc(-c2nnc(SCC(=O)c3ccccc3)o2)ccn1,65.8%

# Tested on: A-431
# Assay: Induction of apoptosis in human A431 cells assessed as early apoptotic cells at 10 nM after 24 hrs using Annexin VeFITC/propidium iodide staining by flow cytometry
# Format: functional
# Settings: not given
row,SMILES,Activity
1,Nc1cc(-c2nnc(SCC(=O)c3ccccc3)o2)ccn1,17.47%

# Tested on: A-431
# Assay: Induction of apoptosis in human A431 cells assessed as early apoptotic cells at 5 nM after 24 hrs using Annexin VeFITC/propidium iodide staining by flow cytometry
# Format: functional
# Settings: not given
row,SMILES,Activity
1,Nc1cc(-c2nnc(SCC(=O)c3ccccc3)o2)ccn1,16.77%
